Data: US20140228381A1, “METHODS OF CONTROLLING INSECTS OF THE FAMILY CURCOLIONIDAE” (SYNGENTA PARTICIPATIONS AG, priority 2011, published 2014)

How the values were obtained:
Type in all cases: in vivo
[1] = test system: Anthonomus grandis; assay: B.3 field trial, insecticidal activity against Anthonomus grandis in cotton; conditions: 75 g ai/ha, 50% WG
Method: (§1) Trials were carried out in a randomized complete block design, each comprising of 4 replicates and a plot size of 30 m^2. Application was carried out with a pressurized knap sack sprayer. 200 liters of spray volume was applied per ha. 3 applications were carried out in 5 days interval, the first application at BBCH 51. Flonicamid was applied as a 50% WG. Efficacy was evaluated 2 days after 2nd and 5 days after 3rd application. 50 squares were counted per plot and the percentage reduction of damaged squares in comparison to untreated control was calculated after the ABBOTT formula.

[2] = test system: Heliothis virescens; assay: BP80 Heliothis virescens ovo-larvicide, feeding/contact activity, curative; conditions: eggs on artificial diet, 5 days incubation
Method: (§2) BP80s (break points for 80% mortality) were obtained for Pyrifluquinazon and Flonicamid against the following pests: Heliothis virescens, Plutella xylostella, Tetranychus urticae and Cydia pomonella. The specific method used for each pest is outlined below. Heliothis virescens (Tobacco Budworm): ovo-larvicide, feeding/contact activity, curative Eggs (0-24 h old) are placed in a 24-well microtiter plate on artificial diet and treated with test solutions by pipetting. After an incubation period of 5 days, samples are checked for egg mortality and larval mortality. Selectable application rates: 500-0.05 ppm Plutella xylostella (Diamondback Moth): larvicide, feeding/residual contact activity, preventative 24-well microtiter plates with artificial diet are treated with test solutions by pipetting. After drying, the plates are infested with L2 larvae (10-15 per well). After an incubation period of 5 days, samples are checked for larval mortality. Selectable application rates: 500-0.05 ppm Tetranychus urticae (Two-Spotted Spider Mite): Mixed Population feeding/contact activity, preventative Bean leaf discs on agar in 24-well microtiter plates are sprayed with test solutions. After drying, the leaf discs are infested with mite populations of mixed ages. 8 days later, discs are checked for egg mortality, larval mortality, and adult mortality. […]

[3] = test system: Anthonomus grandis; assay: B.2 field trial, insecticidal activity against Anthonomus grandis in cotton; conditions: 75 g ai/ha, 50% WG
Method: Trials were carried out in a randomized complete block design, each comprising of 4 replicates, plot size of 30 m^2. Application was carried out with a pressurized knap sack sprayer. 200 liters of spray volume was applied per ha. 4 applications were carried out in 5 days interval. Flonicamid was applied as a 50% WG Efficacy was evaluated 2 days after 2nd application and 4 days after 4th application. 50 squares were counted per plot and the % reduction of damaged squares in comparison to untreated control was calculated after the ABBOTT formula.

[4] = test system: Anthonomus adults; assay: B.5 immobility effect, contact spray on Anthonomus adults; conditions: 300 ppm contact spray; for no of insects at infestation site (A) / no of insects capable of leaving the infestation site (B) + (C) / no of insects in test arena, not on diet (C) / no of insects on diet (B): 50 beetles
Method: In this test 50 freshly hatched beetles were treated with FLON (IF 050 formulation) and PYQU (VVG 50 formulation). Using a turntable spray, 300 ppm of a 200 g ai/ha formulation were sprayed directly on the beetles. The control beetles (“check”) were sprayed with water. The petri dish was then placed in the test arena next to which was placed a diet situated 23 cm above ground. After a certain time periods shown below in the table, the number of beetles on different sites was counted: […]

[5] = test system: Plutella xylostella; assay: BP80 Plutella xylostella larvicide, feeding/residual contact activity, preventative; conditions: L2 larvae on artificial diet, 5 days incubation
Method: as §2

[6] = test system: Cydia pomonella; assay: BP80 Cydia pomonella larvicide, contact/feeding activity, preventative; conditions: L1 larvae on diet cubes, 14 days after infestation
Method: as §2

[7] = test system: Anthonomus grandis; assay: B.4 field trial, insecticidal activity against Anthonomus grandis in cotton
Method: as §1, with “4 replicates,” for “4 replicates and a”, “ha. 4” for “ha. 3”, “50% WG, and Pyrifluquinaon as a 10% WP.” for “50% WG.”, “after 4th” for “after 2nd”, “and 7” for “and 5”, “after 4th” for “after 3rd”

[8] = test system: Tetranychus urticae; assay: BP80 Tetranychus urticae mixed population, feeding/contact activity, preventative; conditions: bean leaf discs, mixed ages, 8 days
Method: as §2

**Q.** Which results are given for N#CCNC(=O)c1cnccc1C(F)(F)F [Flonicamid, N-(cyanomethyl)-4-(trifluoromethyl)-3-pyridinecarboxamide]?
**A.** % reduction of damaged squares ([1]; 2 days after 2nd application): 67%; % reduction of damaged squares ([1]; 5 days after 3rd application): 52%; BP80 (break point for 80% mortality) [2]: >200 ppm; % reduction of damaged squares ([3]; 2 days after 2nd application): 50%; % reduction of damaged squares ([3]; 4 days after 4th application): 57%; immobility effect disappeared with time (rank order) [4]: PYQU>FLON; no of insects at infestation site (A) ([4]; 3 hours): 37; no of insects capable of leaving the infestation site (B) + (C) ([4]; 3 hours): 13; no of insects in test arena, not on diet (C) ([4]; 3 hours): 11; no of insects on diet (B) ([4]; 3 hours): 2; no of insects at infestation site (A) ([4]; 6 hours): 44; no of insects capable of leaving the infestation site (B) + (C) ([4]; 6 hours): 6; no of insects in test arena, not on diet (C) ([4]; 6 hours): 3; no of insects on diet (B) ([4]; 6 hours): 3; no of insects at infestation site (A) ([4]; 24 hours): 37; no of insects capable of leaving the infestation site (B) + (C) ([4]; 24 hours): 13; no of insects in test arena, not on diet (C) ([4]; 24 hours): 6; no of insects on diet (B) ([4]; 24 hours): 7; no of insects at infestation site (A) ([4]; 32 hours): 21; no of insects capable of leaving the infestation site (B) + (C) ([4]; 32 hours): 29; no of insects in test arena, not on diet (C) ([4]; 32 hours): 3; no of insects on diet (B) ([4]; 32 hours): 26; no of insects at infestation site (A) ([4]; 48 hours): 14; no of insects capable of leaving the infestation site (B) + (C) ([4]; 48 hours): 36; no of insects in test arena, not on diet (C) ([4]; 48 hours): 6; no of insects on diet (B) ([4]; 48 hours): 30; no of insects at infestation site (A) ([4]; 52 hours): 10; no of insects capable of leaving the infestation site (B) + (C) ([4]; 52 hours): 40; no of insects in test arena, not on diet (C) ([4]; 52 hours): 3; no of insects on diet (B) ([4]; 52 hours): 37; no of insects at infestation site (A) ([4]; 72 hours): 9; no of insects capable of leaving the infestation site (B) + (C) ([4]; 72 hours): 41; no of insects in test arena, not on diet (C) ([4]; 72 hours): 7; no of insects on diet (B) ([4]; 72 hours): 34; no of insects at infestation site (A) ([4]; 78 hours): 5; no of insects capable of leaving the infestation site (B) + (C) ([4]; 78 hours): 45; no of insects in test arena, not on diet (C) ([4]; 78 hours): 6; no of insects on diet (B) ([4]; 78 hours): 39; no of insects at infestation site (A) ([4]; 144 hours): 15; no of insects capable of leaving the infestation site (B) + (C) ([4]; 144 hours): 35; no of insects in test arena, not on diet (C) ([4]; 144 hours): 3; no of insects on diet (B) ([4]; 144 hours): 32; no of insects at infestation site (A) ([4]; 150 hours): 5; no of insects capable of leaving the infestation site (B) + (C) ([4]; 150 hours): 45; no of insects in test arena, not on diet (C) ([4]; 150 hours): 1; no of insects on diet (B) ([4]; 150 hours): 44; BP80 (break point for 80% mortality) [5]: >200 ppm; BP80 (break point for 80% mortality) [6]: >50 ppm; % reduction of damaged squares ([7]; 75 g ai/ha, 2 days after 4th application): 65%; % reduction of damaged squares ([7]; 75 g ai/ha, 7 days after 4th application): 50%; % reduction of damaged squares ([7]; 150 g ai/ha, 2 days after 4th application): 81%; % reduction of damaged squares ([7]; 150 g ai/ha, 7 days after 4th application): 52%; BP80 (break point for 80% mortality) [8]: >200 ppm

**Q.** CC(=O)N1C(=O)N(NCc2cccnc2)Cc2cc(C(F)(C(F)(F)F)C(F)(F)F)ccc21 [Pyrifluquinazon, 1-acetyl-3,4-dihydro-3-[(3-pyridinylmethyl)amino]-6-[1,2,2,2-tetrafluoro-1-(trifluoromethyl)ethyl]-2(1H)-quinazolinone] was tested. Which “BP80 (break point for 80% mortality)” value [2] did it give?
**A.** >200 ppm

**Q.** What about the “immobility effect disappeared with time (rank order)” value [4] of the same molecule?
**A.** PYQU>FLON

**Q.** What about the “no of insects at infestation site (A)” value ([4]; 3 hours) of the same molecule?
**A.** 45

**Q.** And the “no of insects capable of leaving the infestation site (B) + (C)” value (“no of insects capable … (C)” for short) ([4]; 3 hours)?
**A.** 5

**Q.** What about the “no of insects in test arena, not on diet (C)” value (“no … not on diet (C)” for short) ([4]; 3 hours) of the same molecule?
**A.** 1

**Q.** What about the “no of insects on diet (B)” value ([4]; 3 hours) of the same molecule?
**A.** 4

**Q.** And the “no of insects at infestation site (A)” value ([4]; 6 hours)?
**A.** 45

**Q.** What about the “no of insects capable … (C)” value ([4]; 6 hours) of the same molecule?
**A.** 5

**Q.** And the “no … not on diet (C)” value ([4]; 6 hours)?
**A.** 2

**Q.** And the “no of insects on diet (B)” value ([4]; 6 hours)?
**A.** 3

**Q.** And the “no of insects at infestation site (A)” value ([4]; 24 hours)?
**A.** 39

**Q.** What about the “no of insects capable … (C)” value ([4]; 24 hours) of the same molecule?
**A.** 11

**Q.** And the “no … not on diet (C)” value ([4]; 24 hours)?
**A.** 3

**Q.** What about the “no of insects on diet (B)” value ([4]; 24 hours) of the same molecule?
**A.** 8

**Q.** And the “no of insects at infestation site (A)” value ([4]; 32 hours)?
**A.** 27

**Q.** And the “no of insects capable … (C)” value ([4]; 32 hours)?
**A.** 23

**Q.** What about the “no … not on diet (C)” value ([4]; 32 hours) of the same molecule?
**A.** 4

**Q.** What about the “no of insects on diet (B)” value ([4]; 32 hours) of the same molecule?
**A.** 19

**Q.** What about the “no of insects at infestation site (A)” value ([4]; 48 hours) of the same molecule?
**A.** 28

**Q.** What about the “no of insects capable … (C)” value ([4]; 48 hours) of the same molecule?
**A.** 22

**Q.** What about the “no … not on diet (C)” value ([4]; 48 hours) of the same molecule?
**A.** 4

**Q.** And the “no of insects on diet (B)” value ([4]; 48 hours)?
**A.** 18

**Q.** What about the “no of insects at infestation site (A)” value ([4]; 52 hours) of the same molecule?
**A.** 30

**Q.** And the “no of insects capable … (C)” value ([4]; 52 hours)?
**A.** 20

**Q.** And the “no … not on diet (C)” value ([4]; 52 hours)?
**A.** 6

**Q.** And the “no of insects on diet (B)” value ([4]; 52 hours)?
**A.** 14

**Q.** What about the “no of insects at infestation site (A)” value ([4]; 72 hours) of the same molecule?
**A.** 30

**Q.** What about the “no of insects capable … (C)” value ([4]; 72 hours) of the same molecule?
**A.** 20

**Q.** And the “no … not on diet (C)” value ([4]; 72 hours)?
**A.** 6

**Q.** And the “no of insects on diet (B)” value ([4]; 72 hours)?
**A.** 14

**Q.** What about the “no of insects at infestation site (A)” value ([4]; 78 hours) of the same molecule?
**A.** 24

**Q.** And the “no of insects capable … (C)” value ([4]; 78 hours)?
**A.** 26

**Q.** What about the “no … not on diet (C)” value ([4]; 78 hours) of the same molecule?
**A.** 4

**Q.** What about the “no of insects on diet (B)” value ([4]; 78 hours) of the same molecule?
**A.** 22

**Q.** What about the “no of insects at infestation site (A)” value ([4]; 144 hours) of the same molecule?
**A.** 15

**Q.** What about the “no of insects capable … (C)” value ([4]; 144 hours) of the same molecule?
**A.** 35

**Q.** What about the “no … not on diet (C)” value ([4]; 144 hours) of the same molecule?
**A.** 4

**Q.** And the “no of insects on diet (B)” value ([4]; 144 hours)?
**A.** 31

**Q.** What about the “no of insects at infestation site (A)” value ([4]; 150 hours) of the same molecule?
**A.** 15

**Q.** And the “no of insects capable … (C)” value ([4]; 150 hours)?
**A.** 35

**Q.** And the “no … not on diet (C)” value ([4]; 150 hours)?
**A.** 2

**Q.** And the “no of insects on diet (B)” value ([4]; 150 hours)?
**A.** 33

**Q.** And the “BP80 (break point for 80% mortality)” value [5]?
**A.** >200 ppm

**Q.** And the “% reduction of damaged squares” value ([7]; 100 g ai/ha, 2 days after 4th application)?
**A.** 77%

**Q.** And the “% reduction of damaged squares” value ([7]; 100 g ai/ha, 7 days after 4th application)?
**A.** 37%

**Q.** What about the “% reduction of damaged squares” value ([7]; 200 g ai/ha, 2 days after 4th application) of the same molecule?
**A.** 85%

**Q.** And the “% reduction of damaged squares” value ([7]; 200 g ai/ha, 7 days after 4th application)?
**A.** 48%

**Q.** And the “BP80 (break point for 80% mortality)” value [8]?
**A.** >200 ppm
